Values after ≈ are worked out from the molar mass of the structure shown. Like-named read-outs stand apart in the source and are kept apart here.
Tests used:
[1] = cited from earlier work
[2] = In vitro release of cosmetic active molecules from loaded microgels by a dialysis method; details: 35% ethanol in dialysate medium, pH 6, 25° C.
Procedure: The study of active molecules release kinetics was carried out by a dialysis method in order to verify that no microgel diffusion occur in dialysate medium (that may also be called “release medium”), and in order to observe the cosmetic active molecule release profile against time.
For that, active molecules-loaded microgel particle dispersions (1 mg/mg microgel) were dialyzed against a dialysate medium. Diffusion of the cosmetic active molecule from the loaded-microgel dispersion medium to the dialysate medium is observed, until an equilibrium concentration is reached between both media.
Loaded-microgel particles comprising an active molecule in an amount of 1 mg/(mg unloaded microgel) were placed inside a dialysis tube and dialyzed in different buffered dialysate media (having different pH, having different temperature, containing a solvent and/or containing a surfactant). The buffered dialysate medium can contain ethanol, citric acid, sodium phosphate dibasic or/and polyoxyethylene monooleate sorbitan (also named Polysorbate 80, Tween® 80 or INCI […]). Active substance concentration in the dialysate medium was determined by UV-Vis.
The effect of temperature on the release kinetics of active molecules was investigated with the dialysate method maintaining pH of the dialysate medium constant at 4.5. The in vitro release was studied at two different temperatures: 25° C. […]

[3] = cited from earlier work; remark: listed apart in the source

Molecule | Solubility in water ([1]; at 25° C.) [µg/mL] | Solubility in ethanol [1] | Incubation time in which 100% is released [2] [h] | Solubility in water [1] | pKa [3]
CC(C)=CCCC(C)CCO (stereo not shown) [Citronellol, 3,7-dimethyloct-6-en-1-ol] | 200 (≈ 1280 µM) | very soluble in ethanol |  |  | 
CCCCC(CC)COC(=O)c1ccccc1O (stereo not shown) [Escalol, 2-ethylhexyl salicylate] |  | soluble in ethanol | ≤ 6 | slighty soluble in water | 
O=C(O)c1ccccc1O [Salicylic acid, 2-Hydroxybenzoic acid, reference compound] |  | soluble in ethanol |  |  | 
CCCCCCOC(=O)c1ccccc1C(=O)c1ccc(N(CC)CC)cc1O [Uvinul-A, hexyl 2-[4-(diethylamino)-2-hydroxybenzoyl]benzoate] |  | soluble in ethanol |  | insoluble in water | 
Hyaluronic acid |  |  |  | soluble in water | 3
